Test in all cases: inhibition of tumour cell growth, NCI panel, 48 h
The test system of experiment [1] is PC-3 prostate.
Experiment [2] deals with MOLT-4 leukemia.
For experiment [3], the system named is NCI-H522 lung.
For experiment [4], the system named is NCI-H460 lung.
In experiment [5] the test system is SF-295 CNS.
Experiment [6] has as its system RXF 393 renal.
Experiment [7] relates to ACHN renal.
Experiment [8] relates to OVCAR-5 ovarian.
Experiment [9] relates to DU-145 prostate.
In experiment [10] the test system is LOX IMVI melanoma.

Each structure is given as a SMILES string.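 Where inhibition never reached the appropriate level, the endpoint shown equals the highest concentration tested. Otherwise, values were interpolated linearly from a five-concentration, 48-hour dose response in 96-well plates. At the GI50, growth is halved. At the TGI there is no net growth.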 Where only a bound is given, the exact number is not on record here.

On to `Cc1ccccc1CNc1c2ccccc2nc2ccccc12`, for which the GI50 is 1.88 µM in experiment [1]; 2.67 µM in experiment [2]; 1.61 µM in [3]; 1.86 µM in experiment [4]; 2.67 µM in experiment [5]; 1.63 µM in experiment [6]. Further, the GI50 in [7] was 1.65 µM; in experiment [8] it was 2.08 µM; in [9] it was 2.91 µM; in experiment [10] it was 1.49 µM. Moreover, the TGI in [1] amounted to 8.79 µM; in experiment [2], 8.14 µM; in experiment [3] it was 4.32 µM; in experiment [4], 4.71 µM; in experiment [5] it was 11.8 µM; in experiment [6], 3.14 µM. For the same compound, the TGI is 3.66 µM in experiment [7], 7.57 µM in [8], 10.1 µM in experiment [9] and 2.93 µM in experiment [10].
`CC(C)C/C(=N\NC(=O)c1ccncc1)c1cc(Cl)ccc1O`: the GI50 in experiment [1] was 1.01 µM; in experiment [2] it was 0.29 µM; in experiment [3], 0.312 µM; in experiment [4] it was 0.127 µM; in experiment [5], 0.256 µM; in experiment [6] it was 2.37 µM. The GI50 in experiment [7] was 0.157 µM; in [8], 0.825 µM; in [9], 0.379 µM; in experiment [10], 0.178 µM. Also, the TGI in experiment [1] was 73.5 µM; in experiment [2], 20.8 µM; in experiment [3], 16 µM; in experiment [4], 31.8 µM; in experiment [5], 13.2 µM; in [6], more than 41 µM. Besides, the TGI in experiment [7] was more than 41.1 µM; in experiment [8], 38.9 µM; in experiment [9] it was 28.9 µM.
`Cc1nn2c(-c3nc4cc(Cl)c(Cl)cc4[nH]3)c(-c3ccc(F)cc3)nc2s1`: the GI50 is 9.29 µM in [1]; more than 100 µM in experiment [2]; 6.35 µM in experiment [3]; 1.75 µM in experiment [4]; 4.92 µM in experiment [5]; 1.84 µM in experiment [6]. Besides, the GI50 in [7] was 1.7 µM; in [8] it was 8.98 µM; in experiment [9], 5.19 µM; in experiment [10], 2.79 µM. The TGI in [1] was more than 100 µM; in [2] it was more than 100 µM; in experiment [3], 55.8 µM; in [4] it was more than 33.8 µM; in experiment [5] it was more than 42.8 µM; in [6], 5.41 µM. Besides, the TGI in experiment [7] is 5.25 µM; in experiment [8], more than 100 µM; in experiment [9] it was more than 100 µM; in [10] it was more than 100 µM.
For `Nc1c(C(=O)Nc2ccccn2)sc2nc3c(cc12)CCCCCC3`, the GI50 is 1.54 µM in experiment [1]; 0.392 µM in [2]; 1.79 µM in [3]; 1.12 µM in experiment [4]; 0.426 µM in [5]; 0.903 µM in [6]. Moreover, the GI50 in experiment [7] was 2.41 µM; in [8], 2.67 µM; in [9], 1.18 µM; in [10], 2.97 µM. In addition, the TGI in experiment [1] is 12.2 µM; in experiment [2] it was more than 50 µM; in experiment [3], more than 50 µM; in [4], 6.62 µM; in experiment [5] it was 5.43 µM; in [6] it was 4.07 µM. In addition, the TGI in experiment [7] amounted to 10.9 µM; in experiment [8], 17.9 µM; in experiment [9], 5.77 µM; in experiment [10] it was 41.9 µM.
Regarding `O=C1C2C(C(=O)N1CC[Se][Se]CCN1C(=O)C3C(C1=O)[C@H]1C=C[C@@H]3C1)[C@H]1C=C[C@@H]2C1` (some centres undefined), the GI50 was 0.844 µM in experiment [1]; 0.41 µM in [2]; 1.79 µM in [3]; 0.361 µM in [4]; 1.11 µM in [5]; 0.338 µM in experiment [6]. Also, the GI50 in experiment [7] is 0.408 µM; in [8] it was 1.48 µM; in [9] it was 0.555 µM; in [10], 0.167 µM. Also, the TGI in [1] is 4.39 µM; in [2], 6.68 µM; in experiment [3], 4.44 µM; in experiment [4], 1.69 µM; in experiment [5] it was 2.42 µM; in experiment [6], 1.11 µM. For the same compound, the TGI in experiment [7] was found to be 2.21 µM; in experiment [8] it was 5.58 µM; in experiment [9] it was 2.86 µM; in [10], 0.327 µM.
Regarding `CN(C)c1ccc2c(c1)OC(N)=C(C#N)C2c1ccc2c(c1)CCCN2C` (centres undefined), the GI50 was 2.64 µM in experiment [1]; 3.38 µM in experiment [2]; 0.274 µM in [3]; 1.92 µM in [4]; 0.708 µM in experiment [5]; 1.43 µM in experiment [6]. The GI50 in experiment [7] was 4.63 µM; in experiment [8] it was 59 µM; in experiment [9], 3.51 µM; in experiment [10] it was 1.97 µM. Besides, the TGI in [1] is more than 100 µM; in experiment [2], 24.5 µM; in experiment [3], 1.47 µM; in experiment [4] it was 24.9 µM; in experiment [5], 6.51 µM; in experiment [6], 5.58 µM. Besides, the TGI in experiment [7] is 64.6 µM; in experiment [8], more than 100 µM; in experiment [9], more than 100 µM; in experiment [10], 19.2 µM.
Consider `N#Cc1cccc(C2C3=C(COC3=O)N(CCO)c3cc4c(cc32)CCC4)c1` (centres undefined), for which the GI50 in experiment [1] was 0.15 µM; in experiment [2], 0.203 µM; in experiment [3], 0.025 µM; in experiment [4] it was 0.16 µM; in experiment [5] it was 0.0716 µM; in experiment [6], 0.119 µM. Moreover, the GI50 is 0.277 µM in experiment [7], 0.237 µM in [8], 0.191 µM in experiment [9] and 0.292 µM in experiment [10]. In addition, the TGI is more than 50 µM in [1]; more than 50 µM in experiment [2]; 1.67 µM in [3]; 5.19 µM in experiment [4]; more than 50 µM in experiment [5]; more than 50 µM in experiment [6]. Further, the TGI in [7] was more than 50 µM; in [8] it was more than 50 µM; in experiment [9], 7.29 µM; in experiment [10], more than 44.9 µM.

The values above are taken from PubChem BioAssay (NCI).
